The test has as its target GSK-3β (Homo sapiens, UniProt P49841). The test can be described thus: ADP Glo GSK-3β kinase assay. The following applies: ADP Glo kinase assay; for IC50: n = 2 (14b n = 5, 24 n = 3), read-out: IC50 (µM) Mean ± SEM GSK-3β; for GSK-3β inhibition (in words): hit 1 from kinome-wide screening. Type of test: biochemical. On the procedure: To extend the biological profile of this novel class of 7-chloro-9H-pyrimido[4,5-b]indole-based GSK-3β inhibitors, we tested the lead compound 14b for its ATP competition in our ADP Glo assay system.
ATP Binding Competition of Compound 14b
Compound 14b was analyzed for its competition with ATP in an ADP Glo GSK-3β assay. To
this end, a dilution series of 14b was incubated with 25 µM, 100 µM and 500 µM of ATP and
corresponding IC50 values were determined. Results and inhibition curves are listed in
Table S1. IC50 values for compound 14b in the ATP binding competition experiment.
ATP concentration [µM] GSK-3β
a IC50 values were determined in an ADP Glo kinase assay , n = 1; b n = 5.
Figure S3. Inhibition curves of compound 14b in the presence of 100 µM and 500 µM ATP.
(1 picture or pasted object on this page, not shown here)
Background: ADP-Glo turns the ADP formed in a reaction into a luminescent signal.

Bounds are passed on as bounds.

The IC50 is the concentration that gives 50% inhibition.

Sequence of GSK-3β (P49841 whole entry): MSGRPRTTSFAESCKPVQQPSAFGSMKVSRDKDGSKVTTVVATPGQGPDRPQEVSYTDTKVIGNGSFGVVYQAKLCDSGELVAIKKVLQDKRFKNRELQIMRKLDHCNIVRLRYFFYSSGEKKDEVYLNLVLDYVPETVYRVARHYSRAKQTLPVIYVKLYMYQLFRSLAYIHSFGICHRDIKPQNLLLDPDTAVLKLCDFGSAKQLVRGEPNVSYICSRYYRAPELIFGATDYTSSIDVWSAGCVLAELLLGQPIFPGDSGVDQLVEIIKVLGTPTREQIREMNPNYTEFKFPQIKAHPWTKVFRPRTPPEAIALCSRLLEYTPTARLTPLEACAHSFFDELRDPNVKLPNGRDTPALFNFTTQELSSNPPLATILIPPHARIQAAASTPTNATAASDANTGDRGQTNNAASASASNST

In the case of `CN(c1ncnc2[nH]c3cc(Cl)ccc3c12)C1CCN(CCC#N)CC1` [Compound 17, 3-(4-((7-Chloro-9H-pyrimido[4,5-b]indol-4-yl)(methyl)amino)piperidin-1-yl)propanenitrile], the IC50 came out at 13.3 ± 4.39 µM.

With `CN(c1ncnc2[nH]c3cc(Cl)ccc3c12)C1CCCN(CCC#N)CC1` (stereo not shown) [Compound 16, 3-(4-((7-Chloro-9H-pyrimido[4,5-b]indol-4-yl)(methyl)amino)azepan-1-yl)propanenitrile], the 50% inhibitory concentration (IC50) is 1.54 ± 0.284 µM.

Take `CN(c1ncnc2[nH]c3cc(Cl)ccc3c12)C1CCCN(C2CCCC2)C1` (stereo not shown) [Compound 14g, 7-Chloro-N-(1-cyclopentylpiperidin-3-yl)-N-methyl-9H-pyrimido[4,5-b]indol-4-amine]: the IC50 is over 10 µM and the “GSK-3β inhibition (in words)” value is listed as “severe decrease in activity”.

As for `CC(C)N1CCCC(N(C)c2ncnc3[nH]c4cc(Cl)ccc4c23)C1` (stereo not shown) [Compound 14f, 7-Chloro-N-(1-isopropylpiperidin-3-yl)-N-methyl-9H-pyrimido[4,5-b]indol-4-amine], the half-maximal inhibitory concentration (IC50) was over 10 µM and the “GSK-3β inhibition (in words)” value is listed as “severe decrease in activity”.

On to `CN(c1ncnc2[nH]c3cc(Cl)ccc3c12)C1CCCN(Cc2cccc(C#N)c2)C1` (stereo not shown) [Compound 14j, 3-((3-((7-Chloro-9H-pyrimido[4,5-b]indol-4-yl)(methyl)amino)piperidin-1-yl)methyl)benzonitrile], for which the 50% inhibitory concentration (IC50) is over 10 µM.

As for `CCCN1CCCC(N(C)c2ncnc3[nH]c4cc(Cl)ccc4c23)C1` (stereo not shown) [Compound 14e, 7-Chloro-N-methyl-N-(1-propylpiperidin-3-yl)-9H-pyrimido[4,5-b]indol-4-amine], the IC50 was over 10 µM and the “GSK-3β inhibition (in words)” value is given as “severe decrease in activity”.

On to `CN(C)CCCN1CCCC(N(C)c2ncnc3[nH]c4cc(Cl)ccc4c23)C1` (stereo not shown) [Compound 14n, 7-Chloro-N-(1-(3-(dimethylamino)propyl)piperidin-3-yl)-N-methyl-9H-pyrimido[4,5-b]indol-4-amine], for which the concentration for half-maximal inhibition (IC50) was 3.56 ± 0.664 µM and the “GSK-3β inhibition (in words)” value is on record as “remarkably reduced GSK-3β inhibition”.

In the case of `COC(=O)CCN1CCCC(N(C)c2ncnc3[nH]c4cc(Cl)ccc4c23)C1` (stereo not shown) [Compound 14d, Methyl-3-(3-((7-chloro-9H-pyrimido[4,5-b]indol-4-yl)(methyl)amino)piperidin-1-yl)propanoate], the half-maximal inhibitory concentration (IC50) was over 10 µM and the “GSK-3β inhibition (in words)” value was “dramatic decrease in activity”.

On to `CN(c1ncnc2[nH]c3cc(Cl)ccc3c12)C1CCCN(CC2CC2)C1` (stereo not shown) [Compound 14m, 7-Chloro-N-(1-(cyclopropylmethyl)piperidin-3-yl)-N-methyl-9H-pyrimido[4,5-b]indol-4-amine], for which the IC50 is over 10 µM and the “GSK-3β inhibition (in words)” value is on record as “severe decrease in activity”.

As to `CN(c1ncnc2[nH]c3cc(Cl)ccc3c12)C1CCCN(Cc2ccco2)C1` (stereo not shown) [Compound 14h, 7-Chloro-N-(1-(furan-2-ylmethyl)piperidin-3-yl)-N-methyl-9H-pyrimido[4,5-b]indol-4-amine], the 50% inhibitory concentration (IC50) is over 10 µM.

As for `CN(c1ncnc2[nH]c3cc(Cl)ccc3c12)C1CCCN(CCC(F)(F)F)C1` (stereo not shown) [Compound 14k, 7-Chloro-N-methyl-N-(1-(3,3,3-trifluoropropyl)piperidin-3-yl)-9H-pyrimido[4,5-b]indol-4-amine], the IC50 was over 10 µM and the “GSK-3β inhibition (in words)” value is “inactive”.

As to `CN(c1ncnc2[nH]c3cc(Cl)ccc3c12)C1CCCN(Cc2ccncc2)C1` (stereo not shown) [Compound 14i, 7-Chloro-N-methyl-N-(1-(pyridin-4-ylmethyl)piperidin-3-yl)-9H-pyrimido[4,5-b]indol-4-amine], the 50% inhibitory concentration (IC50) was over 10 µM.

In the case of `CN(c1ncnc2[nH]c3cc(Cl)ccc3c12)C1CCCN(CC#N)C1` (stereo not shown) [Compound 14l, 2-(3-((7-Chloro-9H-pyrimido[4,5-b]indol-4-yl)(methyl)amino)piperidin-1-yl)acetonitrile], the IC50 is over 10 µM and the “GSK-3β inhibition (in words)” value is “inactive”.

For `CN(c1ncnc2[nH]c3cc(Cl)ccc3c12)C1CCCN(CCC(N)=O)C1` (stereo not shown) [Compound 14c, 3-(3-((7-Chloro-9H-pyrimido[4,5-b]indol-4-yl)(methyl)amino)piperidin-1-yl)propanamide], the IC50 was over 10 µM and the “GSK-3β inhibition (in words)” value is recorded as “dramatic decrease in activity”.

`CN(c1ncnc2[nH]c3cc(Cl)ccc3c12)C1CCN(CCC#N)C1` (stereo not shown) [Compound 15, 3-(3-((7-Chloro-9H-pyrimido[4,5-b]indol-4-yl)(methyl)amino)pyrrolidin-1-yl)propanenitrile]: the IC50 was 7.02 ± 1.08 µM.

Consider `C[C@@H]1CCN(C(=O)CC#N)C[C@@H]1N(C)c1ncnc2[nH]c3cc(Cl)ccc3c12` [Compound 1, 3-((3R,4R)-3-((7-Chloro-9H-pyrimido[4,5-b]indol-4-yl)(methyl)amino)-4-methylpiperidin-1-yl)-3-oxopropanenitrile], for which the “GSK-3β inhibition (in words)” value is recorded as “single-digit micromolar range”.

For `CN(c1ncnc2[nH]c3cc(Cl)ccc3c12)C1CCCN(C(=O)CC#N)C1` (stereo not shown) [Compound 14a, 3-(3-((7-Chloro-9H-pyrimido[4,5-b]indol-4-yl)(methyl)amino)piperidin-1-yl)-3-oxopropanenitrile], the concentration for half-maximal inhibition (IC50) worked out at 1.86 ± 0.113 µM.

For the compound `CN(c1ncnc2c1c1ccc(Cl)cc1n2C)C1CCCN(CCC#N)C1` (stereo not shown) [Compound 14o, 3-(3-((7-Chloro-9-methyl-9H-pyrimido[4,5-b]indol-4-yl)(methyl)amino)piperidin-1-yl)propanenitrile], the IC50 was over 10 µM and the “GSK-3β inhibition (in words)” value was “inactive”.

For the origin of these results see PMC6630214, “Design, Synthesis and Biological Evaluation of 7-Chloro-9H-pyrimido[4,5-b]indole-based Glycogen Synthase Kinase-3β Inhibitors” (Molecules, 2019).
